Some test systems named below: NCI-H23 lung; NCI-H522 lung; BT-549 breast; OVCAR-4 ovarian; ACHN renal; UACC-62 melanoma; SK-MEL-2 melanoma; TK-10 renal; SF-268 CNS; SF-539 CNS; SR leukemia; OVCAR-3 ovarian; KM12 colon; HL-60(TB) leukemia; MCF7 breast; NCI-H226 lung; A498 renal; HCT-116 colon; MDA-N.
What all share (assay): NCI tumour cell line growth inhibition, 48 h

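48-hour exposure; five concentrations; linearly interpolated endpoints. TGI is the concentration that stops growth completely.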

As to `O=C(NC(Cc1c[nH]c2ccccc12)C(=O)Nc1ccc(Br)cc1)OCc1ccccc1` (stereo unspecified), the TGI in the experiment with NCI-H23 lung came to 26.5 µM; in the experiment with NCI-H522 lung it was 28.6 µM; in the experiment on BT-549 breast, 29.8 µM; in the experiment with OVCAR-4 ovarian it was 23.6 µM; with ACHN renal it was 60.3 µM; with UACC-62 melanoma, 22 µM. For the same compound, the TGI with SK-MEL-2 melanoma turned out to be 19.2 µM; in the experiment on TK-10 renal it was 52.8 µM; in the experiment on SF-268 CNS, 37.7 µM; with SF-539 CNS, 29.2 µM; in the experiment on SR leukemia, 47.4 µM; with OVCAR-3 ovarian it was 36.6 µM. For the same compound, the TGI in the experiment with KM12 colon stood at 21.7 µM; with HL-60(TB) leukemia it was 22.2 µM; with MCF7 breast, 29.3 µM; in the experiment on NCI-H226 lung, 31.4 µM; with A498 renal, 23.7 µM; in the experiment on HCT-116 colon it was 23.7 µM.

On to `CC(C)CC1C(=O)NCCC(NC(=O)C(Cc2ccc(OC(C)(C)C)cc2)NC(=O)OC(C)(C)C)C(=O)NC(Cc2ccccc2)C(=O)NC(Cc2ccccc2)NC1=O` (stereo unspecified), for which the TGI with NCI-H23 lung amounted to 33.7 µM; in the experiment on NCI-H522 lung, 35.4 µM; with OVCAR-4 ovarian, 34.6 µM; with ACHN renal, 23.3 µM; with UACC-62 melanoma, 31.1 µM; in the experiment on TK-10 renal, 33.8 µM. Moreover, the TGI in the experiment on SF-268 CNS is 36.1 µM; with SF-539 CNS it was 44.9 µM; with MDA-N, over 100 µM; in the experiment with SR leukemia it was 72.1 µM; in the experiment on OVCAR-3 ovarian, 19.9 µM; in the experiment on KM12 colon, over 100 µM. The TGI in the experiment with HL-60(TB) leukemia worked out at 26.9 µM; in the experiment on MCF7 breast, 52.3 µM; in the experiment on NCI-H226 lung it was 21.2 µM; in the experiment with HCT-116 colon, 17.4 µM.

For the compound `COc1ccc(N2C(=O)C(=O)N(c3ccccc3[N+](=O)[O-])C2=S)cc1`, the TGI worked out at 53.5 µM in the experiment on NCI-H23 lung; 24.4 µM in the experiment on NCI-H522 lung; 58.5 µM in the experiment on OVCAR-4 ovarian; 74.8 µM in the experiment on ACHN renal; 32.5 µM in the experiment with UACC-62 melanoma; 46 µM in the experiment on SK-MEL-2 melanoma. Also, the TGI in the experiment on TK-10 renal is 65.7 µM; in the experiment with SF-268 CNS it was over 100 µM; in the experiment with SF-539 CNS, 88.3 µM; in the experiment with MDA-N it was 74.2 µM; in the experiment with SR leukemia it was over 100 µM; in the experiment with KM12 colon it was 71.9 µM. Moreover, the TGI in the experiment on HL-60(TB) leukemia is over 100 µM; with NCI-H226 lung, over 100 µM; in the experiment on A498 renal, 77.5 µM; in the experiment on HCT-116 colon it was over 100 µM.

For `COC(=O)CCC1=CCC2(SC)C(=O)Nc3cccc1c32` (stereo unspecified), the TGI in the experiment with NCI-H23 lung, in the experiment with NCI-H522 lung, in the experiment on BT-549 breast, with OVCAR-4 ovarian, in the experiment with ACHN renal and in the experiment with UACC-62 melanoma was over 100 µM each time. For the same compound, the TGI with SK-MEL-2 melanoma, in the experiment on TK-10 renal, with SF-268 CNS, with SF-539 CNS, with SR leukemia and in the experiment on OVCAR-3 ovarian was over 100 µM in each case. For the same compound, the TGI in the experiment with KM12 colon, in the experiment with HL-60(TB) leukemia, with MCF7 breast, in the experiment on NCI-H226 lung and in the experiment with HCT-116 colon was over 100 µM in each case.

Consider `Cc1cc2c(cc1Cl)SC(NS(=O)(=O)c1ccc(Cl)cc1)=NS2(=O)=O`, for which the TGI in the experiment on NCI-H23 lung was over 100 µM; in the experiment on NCI-H522 lung, 84.2 µM; in the experiment on BT-549 breast it was over 100 µM; in the experiment with OVCAR-4 ovarian, over 100 µM; in the experiment on ACHN renal, over 100 µM; with UACC-62 melanoma, over 100 µM. Moreover, the TGI was over 100 µM with SK-MEL-2 melanoma; 69.5 µM with TK-10 renal; over 100 µM in the experiment with SF-268 CNS; 73.9 µM in the experiment on SF-539 CNS; 30.4 µM in the experiment on SR leukemia; over 100 µM with OVCAR-3 ovarian. Also, the TGI in the experiment on KM12 colon, in the experiment on HL-60(TB) leukemia, in the experiment with MCF7 breast, in the experiment on NCI-H226 lung, in the experiment with A498 renal and with HCT-116 colon was over 100 µM in each case.

Regarding `C=C(CCC/C(C)=C/C=C/[C@]1(C)CCCc2ccoc21)CC(=O)O`, the TGI in the experiment with NCI-H23 lung, with NCI-H522 lung, in the experiment with BT-549 breast, with OVCAR-4 ovarian, in the experiment on ACHN renal and in the experiment with UACC-62 melanoma was over 100 µM each time. For the same compound, the TGI in the experiment with SK-MEL-2 melanoma, with TK-10 renal, with SF-268 CNS, with SF-539 CNS, with SR leukemia and with OVCAR-3 ovarian was over 100 µM in each case. In addition, the TGI in the experiment on KM12 colon, with HL-60(TB) leukemia, with MCF7 breast, in the experiment with NCI-H226 lung, in the experiment on A498 renal and in the experiment on HCT-116 colon was over 100 µM throughout.

Turning to `CC(=O)c1ccc(NCc2cc(O)ccc2O)cc1`, the TGI was 48.9 µM in the experiment on NCI-H23 lung; over 100 µM with NCI-H522 lung; 34.4 µM in the experiment with OVCAR-4 ovarian; 33 µM in the experiment on ACHN renal; 29.8 µM with UACC-62 melanoma; 57.3 µM in the experiment on SK-MEL-2 melanoma. Moreover, the TGI with TK-10 renal came out at 29 µM; with SF-539 CNS, 33 µM; in the experiment with MDA-N, 43.5 µM; in the experiment with OVCAR-3 ovarian, 19.8 µM; in the experiment on KM12 colon, 34.2 µM; in the experiment on HL-60(TB) leukemia, 76.9 µM. For the same compound, the TGI in the experiment with MCF7 breast was over 100 µM; with NCI-H226 lung it was over 100 µM; with A498 renal, over 100 µM; in the experiment with HCT-116 colon it was 37.4 µM.

On to `CNc1ccc(C(=O)CC(O)CCC(C)C2OC(=O)CC(O)CC(=O)CC(O)CC(O)CC(O)CC(O)CC3(O)CC(O)C(C(=O)NCCN(C)C)C(CC(OC4OC(C)C(O)C(NC(=O)CN5CCN(C)CC5)C4O)/C=C/C=C/C=C/C=C\C=C/C=C/C=C/C2C)O3)cc1` (stereo unspecified), for which the TGI with NCI-H23 lung, in the experiment with BT-549 breast, with OVCAR-4 ovarian, in the experiment with UACC-62 melanoma, in the experiment on SK-MEL-2 melanoma and in the experiment with TK-10 renal was over 100 µM throughout. Moreover, the TGI in the experiment with SF-268 CNS was over 100 µM; with SF-539 CNS, over 100 µM; in the experiment with MDA-N it was over 100 µM; with HL-60(TB) leukemia it was over 100 µM; in the experiment with NCI-H226 lung, over 100 µM; with A498 renal it was 7.8 µM.

Source of the values: PubChem BioAssay (NCI).
